Measured values: ChEMBL document CHEMBL1150722, “Inhibitory effects of various flavonoids isolated from leaves of persimmon on angiotensin-converting enzyme activity” (J Nat Prod, 1987)

Legend:
[1] = target: T1, Angiotensin-converting enzyme (Rattus norvegicus) (UniProt P47820); test: Inhibition of rat lung ACE at 150 ug/ml relative to control
T1 sequence (whole entry): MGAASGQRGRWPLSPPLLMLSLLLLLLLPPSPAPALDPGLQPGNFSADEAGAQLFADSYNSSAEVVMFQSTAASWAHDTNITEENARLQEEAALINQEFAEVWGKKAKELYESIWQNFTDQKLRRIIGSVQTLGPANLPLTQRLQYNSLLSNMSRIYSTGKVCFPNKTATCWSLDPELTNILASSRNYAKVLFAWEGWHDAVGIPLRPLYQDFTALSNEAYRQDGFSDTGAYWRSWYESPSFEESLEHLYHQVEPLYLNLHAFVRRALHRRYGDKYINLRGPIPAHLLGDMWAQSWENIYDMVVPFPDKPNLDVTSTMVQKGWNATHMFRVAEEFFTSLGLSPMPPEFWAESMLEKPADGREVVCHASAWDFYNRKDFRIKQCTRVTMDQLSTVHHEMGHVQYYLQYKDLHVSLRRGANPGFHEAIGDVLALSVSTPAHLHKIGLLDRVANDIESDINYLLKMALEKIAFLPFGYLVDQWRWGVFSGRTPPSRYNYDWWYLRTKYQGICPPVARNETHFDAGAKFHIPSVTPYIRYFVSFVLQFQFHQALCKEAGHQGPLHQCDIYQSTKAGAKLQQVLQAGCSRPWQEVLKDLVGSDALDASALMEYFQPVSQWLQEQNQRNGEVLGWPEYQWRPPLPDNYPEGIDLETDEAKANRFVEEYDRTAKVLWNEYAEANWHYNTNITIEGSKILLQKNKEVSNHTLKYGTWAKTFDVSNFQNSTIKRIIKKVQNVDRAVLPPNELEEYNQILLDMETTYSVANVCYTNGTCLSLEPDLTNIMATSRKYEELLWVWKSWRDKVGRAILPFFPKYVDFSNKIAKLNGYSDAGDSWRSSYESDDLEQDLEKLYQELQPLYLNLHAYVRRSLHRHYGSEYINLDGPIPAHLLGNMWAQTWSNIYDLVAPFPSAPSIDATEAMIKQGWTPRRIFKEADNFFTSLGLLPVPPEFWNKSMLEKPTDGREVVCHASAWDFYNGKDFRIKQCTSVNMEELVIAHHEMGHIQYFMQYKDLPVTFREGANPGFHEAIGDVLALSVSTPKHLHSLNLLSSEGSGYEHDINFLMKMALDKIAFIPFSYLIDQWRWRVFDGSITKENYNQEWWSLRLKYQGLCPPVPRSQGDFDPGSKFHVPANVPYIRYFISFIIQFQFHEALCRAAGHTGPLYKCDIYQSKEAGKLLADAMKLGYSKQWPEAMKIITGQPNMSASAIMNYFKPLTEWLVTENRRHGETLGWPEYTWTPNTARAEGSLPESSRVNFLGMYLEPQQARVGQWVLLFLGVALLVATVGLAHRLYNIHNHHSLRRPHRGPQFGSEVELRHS

[2] = target: T1, Angiotensin-converting enzyme (Rattus norvegicus); test: Inhibition of rat lung ACE at 225 ug/ml relative to control
[3] = target: T1, Angiotensin-converting enzyme (Rattus norvegicus); test: Inhibition of rat lung ACE at 300 ug/ml relative to control
[4] = target: T2, Angiotensin-converting enzyme (Rattus norvegicus, UniProt P47820); test: Inhibition of rat lung ACE
T2 sequence (P47820 whole entry): T1 sequence (whole entry)

[5] = target: T1, Angiotensin-converting enzyme (Rattus norvegicus); test: Inhibition of rat lung ACE at 38 ug/ml relative to control
[6] = target: T1, Angiotensin-converting enzyme (Rattus norvegicus); test: Inhibition of rat lung ACE at 56 ug/ml relative to control
[7] = target: T1, Angiotensin-converting enzyme (Rattus norvegicus); test: Inhibition of rat lung ACE at 75 ug/ml relative to control
[8] = target: T1, Angiotensin-converting enzyme (Rattus norvegicus); test: Inhibition of rat lung ACE at 113 ug/ml relative to control

| SMILES | inhibition [1] [%] | inhibition [2] [%] | inhibition [3] [%] | IC50 [4] [µM] | inhibition [5] [%] | inhibition [6] [%] | inhibition [7] [%] | inhibition [8] [%] |
| --- | --- | --- | --- | --- | --- | --- | --- | --- |
| O=c1c(O[C@@H]2O[C@H](CO)[C@@H](O)[C@H](O)[C@H]2O)c(-c2ccc(O)cc2)oc2cc(O)cc(O)c12 [ASTRAGALIN] | 53 | 28 | 67 | 401 | 0 | 2 | 22 | 31 |
| O=C(O[C@H]1[C@H](Oc2c(-c3ccc(O)c(O)c3)oc3cc(O)cc(O)c3c2=O)O[C@H](CO)[C@@H](O)[C@@H]1O)c1cc(O)c(O)c(O)c1 | 39 | 34 | 48 | – | 10 | 12 | 18 | 39 |
| O=C(O[C@H]1[C@H](Oc2c(-c3ccc(O)cc3)oc3cc(O)cc(O)c3c2=O)O[C@H](CO)[C@@H](O)[C@@H]1O)c1cc(O)c(O)c(O)c1 | 35 | 39 | 53 | 466 | 3 | 6 | 15 | 35 |
| O=c1c(O[C@@H]2O[C@H](CO)[C@@H](O)[C@H](O)[C@H]2O)c(-c2ccc(O)c(O)c2)oc2cc(O)cc(O)c12 | 19 | 19 | – | – | 0 | 0 | 9 | 3 |
